Data as given in patent publication US20190192455A1, “USE OF CELIPROLOL FOR TREATING KYPHOSCOLIOTIC EHLERS-DANLOS SYNDROME” (Assistance Publique-Hospitaux de Paris (AP-HP), priority 2017, published 2019).

Assays:
[1] = test system: kyphoscoliotic EDS patient; assay: Case report: celiprolol in prevention of further arterial events in a kyphoscoliotic EDS patient; assay type: in vivo, human
Excerpt: All ruptures occurred following minor trauma. The right eye ruptured twice, the left eye once only. […] Their family history was remarkable by the death of their only and younger sibling, by spontaneous abdominal aortic rupture. Their phenotype was similar to their […] sibling's.
Physical examination evidenced major cutaneous fragility (bruising) and dystrophic scars. […] furthermore presented a severe kyphoscoliosis and diffuse joint hypermobility (Beighton score 8/9) with instability, particularly of the left shoulder (recurrent dislocations). Further osteoarticular signs were pes planus and minor pectus excavatum. […] The dissecting aneurysm of the celiac trunk also remained stable and a complete regression of the extension of the dissection to the SMA was noted. Two years later, the patient presented with similar pain in the left calf. Doppler ultrasound documented a left tibial anterior dissecting aneurysm. This second clinical event also resolved medically. Celiprolol was initiated and up-titrated to the optimally tolerated dose (400 mg/day) in prevention of further arterial events.

[2] = test system: vascular EDS patients; settings: vascular EDS patients taking celiprolol, compared to placebo (Ong et al., 2010); cited from earlier work

Question: Which results are given for `CCN(CC)C(=O)Nc1ccc(OCC(O)CNC(C)(C)C)c(C(C)=O)c1` (stereo not shown) [Celiprolol, N′-(3-Acetyl-4-(3-((1,1-dimethylethyl)amino)-2-hydroxypropoxy)phenyl)-N, N-diethylurea]?
Answer: clinical course (arterial events) under celiprolol ([1]; one patient with recurrent arterial dissections, up-titrated to 400 mg/day, 3 years follow-up): remained clinically silent; systematic arterial monitoring for silent arterial defects ([1]; same patient, 400 mg/day, 3 years follow-up): did not evidence further silent arterial defects; novel arterial manifestation under celiprolol treatment ([1]; same patient, four year follow-up): without novel arterial manifestation; incidence of arterial rupture or dissection [2]: decreased incidence of arterial rupture or dissection
